According to US9266869B2, “Substituted dialkyl(oxido)-lambda4-sulfanylidene nicotinamide derivatives as kinase inhibitors” (Allergan, Inc., priority 2013, dated 2016):

Experiments:
[1] = target: VEGFR2 (KDR) (Homo sapiens (Human), UniProt P35968); assay: VEGFR2 Kinase Assay; type: biochemical; details: purified cytoplasmic domain KDR protein, 2.7 μM ATP; read-out: VEGFR2 Enzyme Assay (IC50 nM)
Method: VEGFR2 Kinase Assay Biochemical KDR kinase assays were performed in 96 well microtiter plates that were coated overnight with 75 μg/well of poly-Glu-[…]:1) in 10 mM Phosphate Buffered Saline (PBS), pH 7.4. […] Reactions were carried out in 100 μL reaction volumes containing 2.7 μM ATP in kinase buffer (50 mM Hepes buffer pH 7.4, 20 mM MgCl2, 0.1 mM MnCl2 and 0.2 mM Na3VO4). […] Reactions were initiated by the addition 20 ul per well of kinase buffer containing 200-300 ng purified cytoplasmic domain KDR protein (BPS Bioscience, San Diego, Calif.). Following a 15 minute incubation at 30° C., the reactions were washed 2 mls per well PBS-T. 100 μl of a monoclonal anti-phosphotyrosine antibody-peroxidase conjugate diluted 1:10,000 in PBS-T was added to the wells for 30 minutes. Following a 2 mls per well wash with PBS-Tween-20, 100 μl of 0-Phenylenediamine Dihydrochloride in phosphate-citrate buffer, containing urea hydrogen peroxide, was added to the wells for 7-10 minutes as a colorimetric substrate for the peroxidase. […] IC50 values for compound inhibition were calculated directly from graphs of optical density (arbitrary units) versus compound concentration following subtraction of blank values.

[2] = target: T1, PDGFRβ (Homo sapiens (Human), UniProt P09619); assay: PDGFRβ Kinase Assay; type: biochemical; details: purified cytoplasmic domain PDGFR-b protein, 36 μM ATP; read-out: PDGFRβ Enzyme Assay (IC50 nM)
Method: Biochemical PDGFRβ kinase assays were performed in 96 well microtiter plates that were coated overnight with 75 μg of poly-Glu-Tyr (4:1) in 10 mM Phosphate Buffered Saline (PBS), pH 7.4.
PBS-T prior to starting the reaction. Reactions were carried out in 100 μL reaction volumes containing 36 μM ATP in kinase buffer (50 mM Hepes buffer pH 7.4, 20 mM MgCl2, 0.1 mM MnCl2 and 0.2 mM Na3VO4). […] Reactions were initiated by the addition 20 ul per well of kinase buffer containing 200-300 ng purified cytoplasmic domain PDGFR-b protein (Millipore). Following a 60 minute incubation at 30° C., the reactions were washed 2 mls per well PBS-T. 100 μl of a monoclonal anti-phosphotyrosine antibody-peroxidase conjugate diluted 1:10,000 in PBS-T was added to the wells for 30 minutes. Following a 2 mls per well wash with PBS-Tween-20, 100 μl of O-Phenylenediamine Dihydrochloride in phosphate-citrate buffer, containing urea hydrogen peroxide, was added to the wells for 7-10 minutes as a colorimetric substrate for the peroxidase. […] IC50 values for compound inhibition were calculated directly from graphs of optical density (arbitrary units) versus compound concentration following subtraction of blank values.
Target sequence in this assay (P09619 554-1106): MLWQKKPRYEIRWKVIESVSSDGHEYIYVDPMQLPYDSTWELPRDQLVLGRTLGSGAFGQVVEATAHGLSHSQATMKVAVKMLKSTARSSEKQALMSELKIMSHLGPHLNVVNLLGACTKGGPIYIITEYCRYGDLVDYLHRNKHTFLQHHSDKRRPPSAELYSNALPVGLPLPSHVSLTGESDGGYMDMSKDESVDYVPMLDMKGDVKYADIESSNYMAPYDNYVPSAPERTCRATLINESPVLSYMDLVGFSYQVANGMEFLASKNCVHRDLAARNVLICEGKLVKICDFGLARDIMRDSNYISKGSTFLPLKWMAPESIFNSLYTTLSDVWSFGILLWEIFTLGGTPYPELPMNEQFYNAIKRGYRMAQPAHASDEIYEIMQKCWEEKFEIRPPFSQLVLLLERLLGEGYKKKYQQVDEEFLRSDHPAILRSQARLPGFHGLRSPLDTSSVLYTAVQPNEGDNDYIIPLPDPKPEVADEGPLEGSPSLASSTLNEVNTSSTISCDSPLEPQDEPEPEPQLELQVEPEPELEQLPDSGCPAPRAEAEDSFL

[3] = target: T1, PDGFRβ; assay: PDGFRβ Cellular Assay (PDGF-induced intracellular calcium, FLIPR, NHDF-Ad); type: cell-based; details: PDGF-BB stimulation (30 ng/mL)
Method: (§1) Automated FLIPR (Fluorometric Imaging Plate Reader) technology was used to screen for inhibitors of PDGF-induced increases in intracellular calcium levels in fluorescent dye loaded endothelial cells. NHDF-Ad (Normal Human Dermal Fibroblasts, Adult; Lonza) were seeded in 384-well fibronectin coated black-walled plates overnight @ 37° C./5% CO2. Cells were loaded with calcium indicator Fluo-4 for 45 minutes at 37° C. Cells were washed 2 times (Elx405, Biotek Instruments) to remove extracellular dye. For screening, cells were pre-incubated with test agents for 30 minutes, at a single concentration (10 uM) or at concentrations ranging from 0.0001 to 10.0 uM followed by PDGF-BB stimulation (30 ng/mL). Changes in fluorescence at 516 nm were measured simultaneously in all 384 wells using a cooled CCD camera. Data were generated by determining max-min fluorescence levels for unstimulated, stimulated, and drug treated samples. IC50 values for test compounds were calculated from % inhibition of PDGF-BB stimulated responses in the absence of inhibitor.
Target sequence in this assay (P09619 33-1106): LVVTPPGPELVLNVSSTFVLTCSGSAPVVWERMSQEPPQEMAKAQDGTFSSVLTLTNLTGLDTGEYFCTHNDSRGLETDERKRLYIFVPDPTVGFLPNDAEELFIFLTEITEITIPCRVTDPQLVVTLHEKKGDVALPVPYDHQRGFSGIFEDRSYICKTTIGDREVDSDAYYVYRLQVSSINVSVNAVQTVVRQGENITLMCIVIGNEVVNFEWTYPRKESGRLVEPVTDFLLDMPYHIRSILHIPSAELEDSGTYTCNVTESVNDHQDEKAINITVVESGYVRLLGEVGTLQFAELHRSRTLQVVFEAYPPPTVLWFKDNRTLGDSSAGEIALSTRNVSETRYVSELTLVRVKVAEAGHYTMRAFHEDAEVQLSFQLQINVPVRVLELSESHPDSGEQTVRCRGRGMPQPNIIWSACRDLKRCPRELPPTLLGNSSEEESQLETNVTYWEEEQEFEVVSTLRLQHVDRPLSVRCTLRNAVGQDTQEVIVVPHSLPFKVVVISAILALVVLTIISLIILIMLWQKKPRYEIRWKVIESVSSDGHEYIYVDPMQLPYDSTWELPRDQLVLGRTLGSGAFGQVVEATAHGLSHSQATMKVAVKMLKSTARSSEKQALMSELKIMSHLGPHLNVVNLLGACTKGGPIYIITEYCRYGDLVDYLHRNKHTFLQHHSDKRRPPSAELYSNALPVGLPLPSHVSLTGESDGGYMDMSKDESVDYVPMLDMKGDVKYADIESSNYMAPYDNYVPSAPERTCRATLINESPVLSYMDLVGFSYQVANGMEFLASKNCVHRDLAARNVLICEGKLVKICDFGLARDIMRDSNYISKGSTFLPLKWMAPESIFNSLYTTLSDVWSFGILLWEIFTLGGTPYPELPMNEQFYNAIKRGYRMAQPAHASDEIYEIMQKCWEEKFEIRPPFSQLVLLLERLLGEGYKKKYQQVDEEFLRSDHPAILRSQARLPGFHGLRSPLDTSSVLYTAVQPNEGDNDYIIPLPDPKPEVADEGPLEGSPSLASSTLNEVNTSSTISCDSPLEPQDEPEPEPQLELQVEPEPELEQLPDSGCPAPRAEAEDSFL

[4] = target: VEGFR2 (Homo sapiens (Human), UniProt P35968); assay: VEGFR2 Cellular Assay (VEGF induced intracellular calcium, FLIPR, HUVEC); type: cell-based; details: VEGF165 stimulation (10 ng/mL)
Method: as §1, with “VEGFR2 Cellular Assay Automated” for “Automated”, “of VEGF induced” for “of PDGF-induced”, “cells. HUVEC (human umbilical vein endothelial cells) (Clonetics)” for “cells. NHDF-Ad (Normal Human Dermal Fibroblasts, Adult; Lonza)”, “by VEGF165” for “by PDGF-BB”, “stimulation (10” for “stimulation (30”, “of VEGF” for “of PDGF-BB”

VEGFR2, sequence (P35968 20-1356): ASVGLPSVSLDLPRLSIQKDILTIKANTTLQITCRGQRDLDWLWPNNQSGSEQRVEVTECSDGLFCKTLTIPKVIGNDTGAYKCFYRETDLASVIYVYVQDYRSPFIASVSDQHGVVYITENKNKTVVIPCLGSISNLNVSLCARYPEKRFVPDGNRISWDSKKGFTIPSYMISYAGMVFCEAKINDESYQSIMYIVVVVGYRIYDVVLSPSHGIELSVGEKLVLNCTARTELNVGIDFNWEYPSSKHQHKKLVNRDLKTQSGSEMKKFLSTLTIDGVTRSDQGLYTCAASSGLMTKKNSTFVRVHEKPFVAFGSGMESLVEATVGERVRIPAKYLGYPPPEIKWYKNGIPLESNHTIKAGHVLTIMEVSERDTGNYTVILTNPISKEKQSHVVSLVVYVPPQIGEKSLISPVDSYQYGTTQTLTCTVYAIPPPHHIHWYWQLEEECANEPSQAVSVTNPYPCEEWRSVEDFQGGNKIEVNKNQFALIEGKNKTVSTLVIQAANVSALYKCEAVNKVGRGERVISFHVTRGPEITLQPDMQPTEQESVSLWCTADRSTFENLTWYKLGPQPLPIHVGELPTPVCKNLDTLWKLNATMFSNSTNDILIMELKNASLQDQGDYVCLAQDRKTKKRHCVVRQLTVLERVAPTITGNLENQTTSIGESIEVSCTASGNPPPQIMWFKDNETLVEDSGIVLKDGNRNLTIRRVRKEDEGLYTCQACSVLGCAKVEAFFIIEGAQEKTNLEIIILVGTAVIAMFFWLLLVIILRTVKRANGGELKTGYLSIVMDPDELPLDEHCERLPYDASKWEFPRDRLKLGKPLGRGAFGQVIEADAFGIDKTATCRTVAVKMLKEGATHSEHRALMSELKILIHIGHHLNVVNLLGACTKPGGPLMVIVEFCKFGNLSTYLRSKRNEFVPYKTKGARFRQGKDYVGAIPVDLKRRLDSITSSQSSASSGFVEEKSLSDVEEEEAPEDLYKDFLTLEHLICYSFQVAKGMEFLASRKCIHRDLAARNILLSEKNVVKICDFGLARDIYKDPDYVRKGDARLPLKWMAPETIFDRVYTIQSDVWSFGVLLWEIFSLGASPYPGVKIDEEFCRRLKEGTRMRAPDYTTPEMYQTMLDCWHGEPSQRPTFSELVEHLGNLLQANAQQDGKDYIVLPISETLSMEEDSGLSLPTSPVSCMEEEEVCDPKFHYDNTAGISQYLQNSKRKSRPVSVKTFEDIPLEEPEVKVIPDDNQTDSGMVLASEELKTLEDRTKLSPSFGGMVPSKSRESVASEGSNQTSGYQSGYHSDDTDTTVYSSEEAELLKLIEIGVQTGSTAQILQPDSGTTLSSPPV
VEGFR2 (KDR), sequence (P35968 786-1356): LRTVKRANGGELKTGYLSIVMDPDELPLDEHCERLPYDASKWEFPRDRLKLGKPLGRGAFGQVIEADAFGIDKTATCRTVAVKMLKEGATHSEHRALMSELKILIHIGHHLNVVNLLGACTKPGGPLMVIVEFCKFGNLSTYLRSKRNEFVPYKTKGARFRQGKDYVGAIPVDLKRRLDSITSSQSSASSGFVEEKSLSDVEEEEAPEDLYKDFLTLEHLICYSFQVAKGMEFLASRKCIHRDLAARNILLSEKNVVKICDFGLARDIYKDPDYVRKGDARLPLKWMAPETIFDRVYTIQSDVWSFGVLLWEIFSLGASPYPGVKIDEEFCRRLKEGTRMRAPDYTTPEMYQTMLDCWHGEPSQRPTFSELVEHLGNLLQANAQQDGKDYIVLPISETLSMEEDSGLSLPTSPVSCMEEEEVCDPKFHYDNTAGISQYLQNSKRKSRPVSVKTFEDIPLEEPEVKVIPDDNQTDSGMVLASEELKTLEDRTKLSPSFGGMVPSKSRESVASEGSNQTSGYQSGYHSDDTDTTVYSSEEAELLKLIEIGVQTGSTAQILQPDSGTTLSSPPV

IC50 [1] [nM]	IC50 [2] [nM]	IC50 [3] [nM]	IC50 [4] [nM]	Compound
4	–	–	–	O=C(N=S(=O)(CCCO)CCCO)c1cncc(C#Cc2cccc(NC(=O)c3cccc(C(F)(F)F)c3)c2)c1 [Example 18, N-[Bis(3-hydroxypropyl)(oxido)-λ^4-sulfanylidene]-5-[(3-{[3-(trifluoromethyl)benzoyl]amino}phenyl)ethynyl]nicotinamide]
4	13	25	–	COC(=O)CCCCS(C)(=O)=NC(=O)c1cnc(N)c(C#Cc2cccc(NC(=O)Nc3cccc(C)c3)c2)c1 (stereo not shown) [Example 38, Methyl 5-{N-[(6-amino-5-{[3-({[(3-methylphenyl)amino]carbonyl}amino)phenyl]ethynyl}pyridin-3-yl)carbonyl]-S-methylsulfonimidoyl}pentanoate]
2	22	–	9	CS(C)(=O)=NC(=O)c1cnc(N)c(C#Cc2cccc(NC(=O)c3ccc(Cl)cc3)c2)c1 [Example 5, 6-Amino-5-({3-[(4-chlorobenzoyl)amino]phenyl}ethynyl)-N-[dimethyl(oxido)-λ^4-sulfanylidene]nicotinamide]
6	19	–	15	Cc1ccc(NC(=O)Nc2cccc(C#Cc3cncc(C(=O)N=S(C)(C)=O)c3)c2)cc1 [Example 11, N-[Dimethyl(oxido)-λ^4-sulfanylidene]-5-{[3-({[(4-methylphenyl)amino]carbonyl}amino)phenyl]ethynyl}nicotinamide]
5	–	–	46	Cc1ccoc1C(=O)Nc1cccc(C#Cc2cc(C(=O)N=S(C)(=O)CCCCC(=O)O)cnc2N)c1 (stereo not shown) [Example 24, 5-(N-{[6-amino-5-({3-[(3-methyl-2-furoyl)amino]phenyl}ethynyl)pyridin-3-yl]carbonyl}-S-methylsulfonimidoyl)pentanoic acid]
5	–	–	–	COc1cccc(C(=O)Nc2cccc(C#Cc3cc(C(=O)N=S(=O)(CCCO)CCCO)cnc3N)c2)c1 [Example 21, 6-Amino-N-[bis(3-hydroxypropyl)(oxido)-λ^4-sulfanylidene]-5-({3-[(3-methoxybenzoyl)amino]phenyl}ethynyl)nicotinamide]
3	–	–	–	O=C(N=S(=O)(CCCO)CCCO)c1cncc(C#Cc2cccc(NC(=O)c3ccc(Cl)c(C(F)(F)F)c3)c2)c1 [Example 16, N-[Bis(3-hydroxypropyl)(oxido)-λ^4-sulfanylidene]-5-[(3-{[4-chloro-3-(trifluoromethyl)benzoyl]amino}phenyl)ethynyl]nicotinamide]
6	–	–	51	Cn1ccnc1C(=O)Nc1cccc(C#Cc2cc(C(=O)N=S(C)(C)=O)cnc2N)c1 [Example 7, 6-Amino-N-[dimethyl(oxido)-λ^4-sulfanylidene]-5-[(3-{[(1-methyl-1H-imidazol-2-yl)carbonyl]amino}phenyl)ethynyl]nicotinamide]
3	8	–	–	Cc1cccc(NC(=O)c2cccc(C#Cc3cc(C(=O)N=S(=O)(CCCO)CCCO)cnc3N)c2)c1 [Example 22, 6-Amino-N-[bis(3-hydroxypropyl)(oxido)-λ^4-sulfanylidene]-5-[(3-{[(3-methylphenyl)amino]carbonyl}phenyl)ethynyl]nicotinamide]
3	16	–	–	Cc1ccoc1C(=O)Nc1cccc(C#Cc2cc(C(=O)N=S(=O)(CCCO)CCCO)cnc2N)c1 [Example 15, 6-amino-N-[bis(3-hydroxypropyl)(oxido)-λ^4-sulfanylidene]-5-({3-[(3-methyl-2-furoyl)amino]phenyl}ethynyl)nicotinamide]
5	–	–	–	O=C(N=S(=O)(CCCO)CCCO)c1cncc(C#Cc2cccc(NC(=O)c3ccc(F)c(Cl)c3)c2)c1 [Example 19, N-[Bis(3-hydroxypropyl)(oxido)-λ^4-sulfanylidene]-5-({3-[(3-chloro-4-fluorobenzoyl)amino]phenyl}ethynyl)nicotinamide]
5	14	44	–	COC(=O)CCCCS(C)(=O)=NC(=O)c1cnc(N)c(C#Cc2cccc(NC(=O)Nc3cc(C)ccc3F)c2)c1 (stereo not shown) [Example 37, Methyl 5-{N-[(6-amino-5-{[3-({[(2-fluoro-5-methylphenyl)amino]carbonyl}amino)phenyl]ethynyl}pyridin-3-yl)carbonyl]-S-methylsulfonimidoyl}pentanoate]
9	–	–	–	Cc1ccc(F)c(C(=O)Nc2cccc(C#Cc3cncc(C(=O)N=S(=O)(CCCO)CCCO)c3)c2)c1 [Example 20, N-[Bis(3-hydroxypropyl)(oxido)-λ^4-sulfanylidene]-5-({3-[(2-fluoro-5-methylbenzoyl)amino]phenyl}ethynyl)nicotinamide]
3	6	–	–	Cc1cccc(C(=O)Nc2cccc(C#Cc3cncc(C(=O)N=S(=O)(CCCO)CCCO)c3)c2)c1 [Example 17, N-[Bis(3-hydroxypropyl)(oxido)-λ^4-sulfanylidene]-5-({3-[(3-methylbenzoyl)amino]phenyl}ethynyl)nicotinamide]
5	26	–	–	Cc1ccoc1C(=O)Nc1cccc(C#Cc2cncc(C(=O)N=S(=O)(CCCO)CCCO)c2)c1 [Example 14, N-[Bis(3-hydroxypropyl)(oxido)-λ^4-sulfanylidene]-5-({3-[(3-methyl-2-furoyl)amino]phenyl}ethynyl)nicotinamide]
8	–	–	48	CS(C)(=O)=NC(=O)c1cncc(C#Cc2cccc(NC(=O)Nc3ccccc3F)c2)c1 [Example 9, N-[Dimethyl(oxido)-λ^4-sulfanylidene]-5-{[3-({[(2-fluorophenyl)amino]carbonyl}amino)phenyl]ethynyl}nicotinamide]
17	–	43	–	COC(=O)CCCCS(C)(=O)=NC(=O)c1cnc(N)c(C#Cc2cccc(C(=O)Nc3cc(C)ccc3F)c2)c1 (stereo not shown) [Example 35, Methyl 5-[N-({6-amino-5-[(3-{[(2-fluoro-5-methylphenyl)amino]carbonyl}phenyl)ethynyl]pyridin-3-yl}carbonyl)-S-methylsulfonimidoyl]pentanoate]
8	19	–	11	Cc1cccc(NC(=O)Nc2cccc(C#Cc3cncc(C(=O)N=S(C)(C)=O)c3)c2)c1 [Example 10, N-[Dimethyl(oxido)-λ^4-sulfanylidene]-5-{[3-({[(3-methylphenyl)amino]carbonyl}amino)phenyl]ethynyl}nicotinamide]

Compound	IC50 [1] [nM]	IC50 [2] [nM]	IC50 [3] [nM]	IC50 [4] [nM]
6-Amino-N-[(3-hydroxypropyl)(methyl)oxido-λ^4-sulfanylidene]-5-({3-[(3-methyl-2-furoyl)amino]phenyl}ethynyl)nicotinamide [Example 42]	5	13	–	–
(R)—N-[(3-Hydroxypropyl)(methyl)oxido-λ^4-sulfanylidene]-5-({3-[(3-methyl-2-furoyl)amino]phenyl}ethynyl)nicotinamide [Example 40]	3	–	–	2
